Measured values as given in ChEMBL document CHEMBL3217600, “The discovery and profile of PF-0868087, a CNS-sparing histamine H3 receptor antagonist for the treatment of allergic rhinitis” (Medchemcomm, 2012).

Columns and labels:
[1] = Ratio of free drug level in brain to plasma in iv dosed rat measured after 6 hrs infusion; type: ADME, organism-based; conditions: read-out: K(p,uu,brain)
BCRP = assay: Efflux ratio of permeability from basolateral to apical side over apical to basolateral side of BCRP transfected dog RRCK cells; type: ADME, cell-based, Canis lupus familiaris, MDCKII-LE
[2] = Distribution coefficient, log D of the compound at pH 7.4; type: physicochemical; conditions: octanol/water
Rattus norvegicus [3] = assay: Ex vivo receptor occupancy of histamine H3 receptor in iv dosed rat brain administered at 20 times free H3R Ki in plasma measured after 6 hrs infusion; type: functional
[4] = Solubility of the compound; type: physicochemical
[5] = Ratio of free drug level in brain to plasma in rat at 8 mg/kg/day, po for 8 days; type: ADME, organism-based; design: route oral; conditions: read-out: K(p,uu,brain)
[6] = Oral bioavailability in rat; type: ADME, organism-based; conditions: in vivo
[7] = Apparent permeability from apical to basolateral side in dog RRCK cells; type: ADME, cell-based, Canis lupus familiaris, MDCKII-LE; conditions: MDCK
MDR1 (P-gp) = assay: Efflux ratio of permeability from basolateral to apical side over apical to basolateral side of MDR1 transfected dog MDCK cells; type: ADME, cell-based, Canis lupus familiaris
[8] = Therapeutic index in EEG PKPD rat relative to CNS penetrant compound Z; type: organism-based; conditions: in vivo, read-out: TI
Nucleic Acid = assay: Ratio of drug level in CSF to free drug level in plasma in iv dosed rat administered at high multiple of H3R Ki measured after 4 hrs infusion; type: ADME, organism-based; conditions: in vivo
[9] = Total Cmax in dog at 0.2 mg/kg, iv infusion; type: ADME, organism-based, Canis lupus familiaris; design: dose 0.2 mg/kg, route intravenous; conditions: in vivo
[10] = Tmax in rat at 2 mg/kg, po; type: ADME, organism-based; design: dose 2 mg/kg, route oral; conditions: in vivo
[11] = Tmax in dog at 0.2 mg/kg, po; type: ADME, organism-based, Canis lupus familiaris; design: dose 0.2 mg/kg, route oral; conditions: in vivo
[12] = target: Voltage-gated inwardly rectifying potassium channel KCNH2 (Homo sapiens, UniProt Q12809); assay: Binding affinity to human ERG
Sequence of Voltage-gated inwardly rectifying potassium channel KCNH2 (Q12809 whole entry): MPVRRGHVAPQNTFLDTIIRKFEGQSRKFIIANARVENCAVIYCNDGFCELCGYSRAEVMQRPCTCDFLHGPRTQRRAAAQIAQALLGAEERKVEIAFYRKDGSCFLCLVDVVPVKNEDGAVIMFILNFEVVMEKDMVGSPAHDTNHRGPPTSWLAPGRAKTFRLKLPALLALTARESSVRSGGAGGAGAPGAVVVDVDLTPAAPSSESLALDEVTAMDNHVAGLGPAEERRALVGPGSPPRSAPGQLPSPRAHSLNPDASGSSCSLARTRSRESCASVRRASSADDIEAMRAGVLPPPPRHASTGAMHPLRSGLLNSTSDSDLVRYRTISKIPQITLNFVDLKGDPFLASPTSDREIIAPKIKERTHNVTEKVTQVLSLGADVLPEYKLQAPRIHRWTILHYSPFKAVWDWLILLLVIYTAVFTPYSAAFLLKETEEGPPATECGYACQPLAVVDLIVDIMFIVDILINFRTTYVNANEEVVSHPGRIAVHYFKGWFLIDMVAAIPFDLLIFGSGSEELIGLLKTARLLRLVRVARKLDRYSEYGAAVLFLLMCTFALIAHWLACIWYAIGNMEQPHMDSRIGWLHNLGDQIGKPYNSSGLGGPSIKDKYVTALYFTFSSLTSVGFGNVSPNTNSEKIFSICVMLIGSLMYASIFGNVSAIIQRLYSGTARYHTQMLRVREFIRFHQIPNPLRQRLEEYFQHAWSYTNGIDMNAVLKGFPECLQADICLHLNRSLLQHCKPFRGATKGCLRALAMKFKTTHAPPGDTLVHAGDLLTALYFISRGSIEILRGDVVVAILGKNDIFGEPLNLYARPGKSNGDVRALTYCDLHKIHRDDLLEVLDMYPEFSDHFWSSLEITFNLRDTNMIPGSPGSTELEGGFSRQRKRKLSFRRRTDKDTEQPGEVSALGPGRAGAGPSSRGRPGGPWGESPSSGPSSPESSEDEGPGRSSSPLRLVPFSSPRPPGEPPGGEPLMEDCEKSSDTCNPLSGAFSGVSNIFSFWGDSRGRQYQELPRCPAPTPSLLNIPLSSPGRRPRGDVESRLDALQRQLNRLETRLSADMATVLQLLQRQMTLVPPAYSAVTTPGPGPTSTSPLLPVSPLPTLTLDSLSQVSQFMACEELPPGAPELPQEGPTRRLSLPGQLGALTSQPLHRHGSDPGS

Canis familiaris [13] = assay: Free Cmax in dog at 0.2 mg/kg, po; type: ADME, organism-based, Canis lupus familiaris; design: dose 0.2 mg/kg, route oral; conditions: in vivo
Canis familiaris [14] = assay: Free Cmax in dog at 0.2 mg/kg, iv infusion; type: ADME, organism-based, Canis lupus familiaris; design: dose 0.2 mg/kg, route intravenous; conditions: in vivo
[15] = Total Cmax in rat at 2 mg/kg, po; type: ADME, organism-based; design: dose 2 mg/kg, route oral; conditions: in vivo
[16] = Clearance in dog at 0.2 mg/kg, iv infusion; type: ADME, organism-based, Canis lupus familiaris; design: dose 0.2 mg/kg, route intravenous; conditions: in vivo
Rattus norvegicus [17] = assay: Free Cmax in rat at 1 mg/kg, iv administered as bolus dose; type: ADME, organism-based; design: dose 1 mg/kg, route intravenous; conditions: in vivo
[18] = Oral bioavailability in dog at 0.2 mg/kg; type: ADME, organism-based, Canis lupus familiaris; conditions: in vivo
Histamine H4 receptor = Histamine H4 receptor (Homo sapiens, UniProt Q9H3N8); assay: Binding affinity to human histamine H4 receptor
Sequence of Histamine H4 receptor (Q9H3N8 whole entry): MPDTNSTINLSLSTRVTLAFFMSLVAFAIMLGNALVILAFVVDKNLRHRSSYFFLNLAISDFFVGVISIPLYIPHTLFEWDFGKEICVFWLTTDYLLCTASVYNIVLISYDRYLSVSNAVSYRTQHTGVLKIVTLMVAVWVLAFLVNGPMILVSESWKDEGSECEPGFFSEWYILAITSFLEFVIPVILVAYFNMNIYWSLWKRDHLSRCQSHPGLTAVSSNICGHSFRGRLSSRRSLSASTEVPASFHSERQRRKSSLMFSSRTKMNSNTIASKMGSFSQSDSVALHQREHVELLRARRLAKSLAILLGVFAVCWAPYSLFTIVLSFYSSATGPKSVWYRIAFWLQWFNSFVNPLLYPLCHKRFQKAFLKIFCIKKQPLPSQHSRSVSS

Rattus norvegicus [19] = assay: Free drug level in non-regulatory rat administered for 7 days; type: ADME, organism-based; conditions: in vivo, 168 h
Histamine H3 receptor [20] = target: T1, Histamine H3 receptor (Homo sapiens, UniProt Q9Y5N1); assay: Inhibition of human recombinant histamine H3 receptor expressed in HEK293 cells assessed as inhibition of imetit-induced reduction in NKH477-stimulated cAMP accumulation by DiscoveRxTM assay; type: functional, cell-based
T1 sequence (Q9Y5N1 whole entry): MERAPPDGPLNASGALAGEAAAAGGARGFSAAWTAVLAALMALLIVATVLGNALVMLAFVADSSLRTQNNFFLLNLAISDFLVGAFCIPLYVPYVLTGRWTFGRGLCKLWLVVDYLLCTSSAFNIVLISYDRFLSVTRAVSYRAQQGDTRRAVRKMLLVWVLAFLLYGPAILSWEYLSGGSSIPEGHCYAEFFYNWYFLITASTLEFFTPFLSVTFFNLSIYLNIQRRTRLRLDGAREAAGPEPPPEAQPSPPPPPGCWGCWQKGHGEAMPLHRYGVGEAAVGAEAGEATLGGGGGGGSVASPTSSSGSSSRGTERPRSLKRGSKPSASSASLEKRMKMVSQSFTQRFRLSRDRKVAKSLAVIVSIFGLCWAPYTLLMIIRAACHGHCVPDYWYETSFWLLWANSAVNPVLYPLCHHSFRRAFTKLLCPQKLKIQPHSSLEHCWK

[21] = Volume of distribution at steady state in rat at 1 mg/kg, iv administered as bolus dose; type: ADME, organism-based; design: dose 1 mg/kg, route intravenous; conditions: in vivo, read-out: Vdss
CHO [22] = assay: Genotoxicity in CHO cells by micronucleus test in absence of metabolic activation; type: toxicity, cell-based, Cricetulus griseus; conditions: chinese hamster
[23] = Total Cmax in dog at 0.2 mg/kg, po; type: ADME, organism-based, Canis lupus familiaris; design: dose 0.2 mg/kg, route oral; conditions: in vivo
Rattus norvegicus [24] = assay: Free Cmax in rat at 2 mg/kg, po; type: ADME, organism-based; design: dose 2 mg/kg, route oral; conditions: in vivo
Salmonella typhimurium [25] = assay: Genotoxicity in Salmonella typhimurium TA98 expressing lux gene assessed as mutagenicity by BioLum Ames test; type: toxicity, organism-based; conditions: salmonella enterica subsp. enterica serovar typhimurium
[26] = Toxicity in non-regulatory rat assessed as tolerability administered for 7 days; type: organism-based; conditions: in vivo
[27] = AUC in dog at 0.2 mg/kg, iv infusion; type: ADME, organism-based, Canis lupus familiaris; design: dose 0.2 mg/kg, route intravenous; conditions: plasma
[28] = Effective half life in dog at 0.2 mg/kg, iv infusion; type: ADME, organism-based, Canis lupus familiaris; design: dose 0.2 mg/kg, route intravenous; conditions: in vivo, read-out: t1/2eff (converted)
CHO [29] = assay: Genotoxicity in CHO cells by micronucleus test in presence of metabolic activation; type: toxicity, cell-based, Cricetulus griseus; conditions: chinese hamster
[30] = Dissociation constant, pKa of the compound; type: physicochemical
[31] = AUC in dog at 0.2 mg/kg, po; type: ADME, organism-based, Canis lupus familiaris; design: dose 0.2 mg/kg, route oral; conditions: plasma
[32] = Ratio of free drug level in brain to plasma in dog at 1.5 mg/kg/day, po for 8 days; type: ADME, organism-based, Canis lupus familiaris; design: route oral; conditions: read-out: K(p,uu,brain)
[33] = Drug absorption in rat at 2 mg/kg, po; type: ADME, organism-based; design: dose 2 mg/kg, route oral; conditions: in vivo, read-out: Drug absorption
Histamine H1 receptor = Histamine H1 receptor (Homo sapiens, UniProt P35367); assay: Binding affinity to human histamine H1 receptor
Sequence of Histamine H1 receptor (P35367 whole entry): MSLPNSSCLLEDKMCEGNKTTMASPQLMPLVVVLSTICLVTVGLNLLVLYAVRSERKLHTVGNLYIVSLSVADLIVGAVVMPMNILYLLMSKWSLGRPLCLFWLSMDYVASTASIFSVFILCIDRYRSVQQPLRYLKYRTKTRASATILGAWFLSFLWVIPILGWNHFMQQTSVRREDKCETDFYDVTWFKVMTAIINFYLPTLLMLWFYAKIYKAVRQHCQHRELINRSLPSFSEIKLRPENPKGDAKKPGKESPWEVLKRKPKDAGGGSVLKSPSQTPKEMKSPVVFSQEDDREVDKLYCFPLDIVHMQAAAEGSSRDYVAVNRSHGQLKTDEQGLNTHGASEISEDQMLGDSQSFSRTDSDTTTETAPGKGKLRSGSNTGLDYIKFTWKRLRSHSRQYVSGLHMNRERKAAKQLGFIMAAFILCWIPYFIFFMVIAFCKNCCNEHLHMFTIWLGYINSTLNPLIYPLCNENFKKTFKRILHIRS

[34] = Clearance in rat at 1 mg/kg, iv administered as bolus dose; type: ADME, organism-based; design: dose 1 mg/kg, route intravenous; conditions: in vivo
[35] = Binding affinity to sigma receptor (unknown origin); design: species or system Homo sapiens
Histamine H3 receptor [36] = target: T2, Histamine H3 receptor (Rattus norvegicus, UniProt Q9QYN8); assay: Displacement of [3H]-N-alpha-methylhistamine from histamine H3 receptor in rat brain; type: tissue-based
T2 sequence (Q9QYN8 whole entry, the tested form may be a part): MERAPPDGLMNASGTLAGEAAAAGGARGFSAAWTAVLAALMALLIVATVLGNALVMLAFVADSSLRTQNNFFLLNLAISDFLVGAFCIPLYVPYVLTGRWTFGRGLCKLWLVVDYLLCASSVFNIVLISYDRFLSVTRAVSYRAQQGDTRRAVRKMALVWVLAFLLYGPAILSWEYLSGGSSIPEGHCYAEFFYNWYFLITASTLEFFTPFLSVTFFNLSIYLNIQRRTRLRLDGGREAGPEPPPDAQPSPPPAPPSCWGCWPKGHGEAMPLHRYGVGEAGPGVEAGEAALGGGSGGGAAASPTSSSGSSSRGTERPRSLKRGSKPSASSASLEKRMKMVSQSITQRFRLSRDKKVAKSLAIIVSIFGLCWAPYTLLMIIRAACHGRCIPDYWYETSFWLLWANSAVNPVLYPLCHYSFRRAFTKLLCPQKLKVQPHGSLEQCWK

[37] = Volume of distribution at steady state in dog at 0.2 mg/kg, iv infusion; type: ADME, organism-based, Canis lupus familiaris; design: dose 0.2 mg/kg, route intravenous; conditions: in vivo, read-out: Vdss
Histamine H3 receptor [38] = target: T1, Histamine H3 receptor; assay: Displacement of [3H]-N-alpha-methylhistamine from human recombinant histamine H3 receptor expressed in HEK293 cell membrane; type: cell membranes
Histamine H3 receptor [39] = target: T1, Histamine H3 receptor; assay: Inhibition of human recombinant histamine H3 receptor expressed in HEK293 cells by Glosensor functional assay; type: cell-based
HEK293 = assay: Selectivity ratio of Ki for sigma receptor (unknown origin) to Ki for human recombinant histamine H3 receptor expressed in HEK-293 cells; type: cell-based
[40] = target: Histamine H3 receptor (Cavia porcellus) (UniProt Q9JI35); assay: Inhibition of histamine H3 receptor in electrically contracted guinea pig ileum assessed as reduction of R-alpha-methyl histamine mediated relaxation; type: tissue-based
Sequence of Histamine H3 receptor (Cavia porcellus) (Q9JI35 whole entry): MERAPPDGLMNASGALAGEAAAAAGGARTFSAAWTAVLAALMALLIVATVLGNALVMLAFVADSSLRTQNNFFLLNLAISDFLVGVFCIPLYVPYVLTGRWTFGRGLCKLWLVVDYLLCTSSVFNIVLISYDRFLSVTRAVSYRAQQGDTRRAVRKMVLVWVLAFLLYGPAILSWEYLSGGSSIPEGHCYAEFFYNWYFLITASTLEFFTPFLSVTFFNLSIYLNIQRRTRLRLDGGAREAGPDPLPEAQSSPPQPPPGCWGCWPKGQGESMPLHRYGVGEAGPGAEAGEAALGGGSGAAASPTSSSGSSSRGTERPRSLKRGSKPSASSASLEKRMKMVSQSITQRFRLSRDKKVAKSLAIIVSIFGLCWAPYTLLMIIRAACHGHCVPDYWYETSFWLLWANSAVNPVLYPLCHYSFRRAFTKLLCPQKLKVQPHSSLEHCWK

[41] = AUC in rat at 2 mg/kg, po; type: ADME, organism-based; design: dose 2 mg/kg, route oral; conditions: plasma
Histamine H3 receptor [42] = target: T1, Histamine H3 receptor; assay: Displacement of [3H]-PF-05255650 from human recombinant histamine H3 receptor expressed in HEK293 cell membrane; type: cell membranes
Histamine H3 receptor [43] = target: T2, Histamine H3 receptor; assay: Displacement of [3H]-N-alpha-methylhistamine from rat recombinant histamine H3 receptor expressed in HEK293 cell membrane; type: cell membranes
Histamine H2 receptor = Histamine H2 receptor (Homo sapiens, UniProt P25021); assay: Binding affinity to human histamine H2 receptor
Sequence of Histamine H2 receptor (P25021 whole entry): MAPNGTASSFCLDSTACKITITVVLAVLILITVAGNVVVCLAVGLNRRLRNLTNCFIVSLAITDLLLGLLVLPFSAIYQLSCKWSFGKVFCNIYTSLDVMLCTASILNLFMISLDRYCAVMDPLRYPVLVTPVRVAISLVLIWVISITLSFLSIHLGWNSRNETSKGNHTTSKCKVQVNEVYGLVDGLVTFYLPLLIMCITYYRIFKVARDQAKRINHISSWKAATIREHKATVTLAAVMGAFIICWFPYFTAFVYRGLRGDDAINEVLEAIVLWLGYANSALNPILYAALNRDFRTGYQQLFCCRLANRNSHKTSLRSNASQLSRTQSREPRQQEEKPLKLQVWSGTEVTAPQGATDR

[44] = Oral bioavailability in rat at 2 mg/kg; type: ADME, organism-based; conditions: in vivo
[45] = Total Cmax in rat at 1 mg/kg, iv administered as bolus dose; type: ADME, organism-based; design: dose 1 mg/kg, route intravenous; conditions: in vivo
[46] = Effective half life in rat at 1 mg/kg, iv administered as bolus dose; type: ADME, organism-based; design: dose 1 mg/kg, route intravenous; conditions: in vivo, read-out: t1/2eff (converted)
[47] = Induction of phospholipidosis in transformed human liver epithelial cells; type: cell-based; conditions: epithelial cell
Salmonella typhimurium [48] = assay: Genotoxicity in Salmonella typhimurium TA100 expressing lux gene assessed as mutagenicity by BioLum Ames test; type: toxicity, organism-based; conditions: salmonella enterica subsp. enterica serovar typhimurium
[49] = AUC in rat at 1 mg/kg, iv administered as bolus dose; type: ADME, organism-based; design: dose 1 mg/kg, route intravenous; conditions: plasma

CC(C)N1CCC(Oc2ccc3c(n2)CCN(c2ccc(C(N)=O)cn2)C3)CC1
Kp uu at 6 h [1]: 0.1 | efflux ratio (BCRP): 3.7 | logD [2]: 1.2 | Occ (Rattus norvegicus [3]): 18% | solubility [4]: > 1000 µg/mL | Kp uu at 192 h [5]: 0.07 | bioavailability [6]: 54% | Papp A→B [7]: 11 ×10⁻⁶ cm/s | efflux ratio (MDR1 (P-gp)): 4.8 | selectivity ratio [8]: 40 | Ratio (Nucleic Acid): 0.05

CC(C)N1CCC(Oc2ccc(C3(C(N)=O)CCOCC3)cc2)CC1
Kp uu at 6 h [1]: 0.1 | Cmax [9]: 129 ng/mL | Tmax [10]: 0.75 h | Tmax [11]: 0.9 h | Ki [12]: > 40000 nM | fCmax (Canis familiaris [13]): 352 nM | fCmax (Canis familiaris [14]): 320 nM | Cmax [15]: 89 ng/mL | efflux ratio (BCRP): 5.6 | clearance [16]: 6.1 mL/min/kg | logD [2]: 0 | fCmax (Rattus norvegicus [17]): 856 nM | bioavailability [18]: 133% | Ki (Histamine H4 receptor): > 4000 nM | Drug uptake(free) (Rattus norvegicus [19]): 14.051 µM | solubility [4]: > 1000 µg/mL | Emax (Histamine H3 receptor [20]): 195% | Ki (Histamine H3 receptor [20]): 0.832 nM | Vd [21]: 4.1 L/kg | Activity (CHO [22]): Non-toxic | Cmax [23]: 142 ng/mL | fCmax (Rattus norvegicus [24]): 158 nM | Activity (Salmonella typhimurium [25]): Non-toxic | NOAEL at 168 h [26]: 80 mg/kg/day | AUC [27]: 548 ng·h/mL | Kp uu at 192 h [5]: 0.07 | half-life [28]: 4.5 h | Activity (CHO [29]): Non-toxic | bioavailability [6]: 42% | pKa [30]: 9.78 | AUC [31]: 727 ng·h/mL | Kp uu at 192 h [32]: 0.1 | Fa [33]: 57% | Ki (Histamine H1 receptor): > 4000 nM | clearance [34]: 27 mL/min/kg | Ki [35]: 3900 nM | Papp A→B [7]: 2 ×10⁻⁶ cm/s | Ki (Histamine H3 receptor [36]): 145 nM | Vd [37]: 2.3 L/kg | efflux ratio (MDR1 (P-gp)): 3.3 | Ki (Histamine H3 receptor [38]): 9.6 nM | Kb (Histamine H3 receptor [39]): 0.42 nM | Ratio Ki (HEK293): > 400 | A2 [40]: 0.96 nM | AUC [41]: 649 ng·h/mL | Ki (Histamine H3 receptor [42]): 1.36 nM | selectivity ratio [8]: 16 | Ki (Histamine H3 receptor [43]): 90.6 nM | Ki (Histamine H2 receptor): > 4000 nM | bioavailability [44]: 42% | Cmax [45]: 477 ng/mL | half-life [46]: 1.9 h | Ratio (Nucleic Acid): 0.06 | NOAEL [47]: 150 µM | Activity (Salmonella typhimurium [48]): Non-toxic | AUC [49]: 776 ng·h/mL
